Results published in US20260000620A1, “ORAL DOSAGE FORMS” (priority 2022, published 2026).
Positions of bridges follow the written chain, without caps; N, C: chain ends. Residues, ends and D or L forms follow the SMILES beside them.

What was measured:
[1] = dog, in vivo, iv
Procedure: (§1) A dog PK study with terlipressin capsules was carried out essentially as described in Example 2. The key differences are as follows:
(§2) Test article administration: Animals were fasted for at least 12 hours prior to dosing and through the first 4 hours of blood sample collection (food was returned within 30 minutes following collection of the last blood sample at the 4 hour collection interval).
(§3) Intravenous administration: Animals in Phase 1 (groups 1 and 2) received a single iv of glypressin of 0.04 or 0.2 mg terlipressin base (0.24 or 1.2 mL/animal, respectively). Dosing was performed by 1 minute slow injection via the cephalic vein, using a catheter.
(§4) Blood collection: Blood samples (approximately 3 mL/sample) were collected from the jugular vein in the following time points:
(§5) Blood samples were placed into tubes containing K2EDTA. The samples were centrifuged under refrigerated (2 to 8° C.) conditions within 30 minutes of sample collection and the resulting plasma was separated and split into two approximately equal aliquots. Each plasma sample was placed into pre-chilled tubes that were placed on dry ice until frozen at −60° to −90° C. Bioanalysis was performed for plasma concentrations of both terlipressin and LVP.
(§6) Bioanalysis of plasma samples was performed using a LC-MS/MS method for quantitation of terlipressin and [Lys8]—Vasopressin in Dog Plasma.

in vivo = settings: beagle, dog, iv
Procedure: as §1, §2, §3, §4, §5, §6

- increase of both LVP AUCs from 0.04 mg to 0.2 mg [1]: 3.7 fold
- AUC(0-inf) (in vivo; 0.04 mg): 1.77 ng·h/mL
- AUC(0-t) (in vivo; 0.04 mg): 1.82 ng·h/mL
- Cmax (in vivo; 0.04 mg): 12.6 ng/mL
- Tmax (in vivo; 0.04 mg): 4.98 min
- half-life (in vivo; 0.04 mg): 4.44 min
- AUC(0-inf) (in vivo; 0.2 mg): 9.14 ng·h/mL
- AUC(0-t) (in vivo; 0.2 mg): 9.13 ng·h/mL
- Cmax (in vivo; 0.2 mg): 59.1 ng/mL
- Tmax (in vivo; 0.2 mg): 4.02 min
- half-life (in vivo; 0.2 mg): 13.9 min
Compound: NCCCC[C@H](NC(=O)[C@@H]1CCCN1C(=O)[C@@H]1CSSC[C@H](NC(=O)CNC(=O)CNC(=O)CN)C(=O)N[C@@H](Cc2ccc(O)cc2)C(=O)N[C@@H](Cc2ccccc2)C(=O)N[C@@H](CCC(N)=O)C(=O)N[C@@H](CC(N)=O)C(=O)N1)C(=O)NCC(N)=O [terlipressin, triglycyl lysine vasopressin] (H-GGGCYFQNCPKG-NH2; disulfide 4-9)
